The values that follow come from PubChem BioAssay (NCI).

The TGI is the concentration giving total growth inhibition. Read a high TGI as less potent growth arrest.

What all share (assay): DTP human tumour cell line panel, 48 h
Test [1] relates to NCI-H226 lung.
For test [2], the system named is UACC-257 melanoma.
The test system of test [3] is HCT-116 colon.
For test [4], the system named is 786-0 renal.
The subject of test [5] is SR leukemia.
Test [6] has as its system SW-620 colon.
Test [7] deals with CAKI-1 renal.
The test system of test [8] is MALME-3M melanoma.
Test [9] concerns U251 CNS.
Test [10] deals with NCI-H460 lung.
Test [11] has as its system DU-145 prostate.
For test [12], the system named is PC-3 prostate.

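Test compounds were applied to cells in 96-well plates for 48 hours at 5 doses. TGI denotes the concentration required for complete inhibition of growth.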

Consider `O=c1[nH]c(=O)n(C2CC(O)C(CO)O2)cc1C#Cc1cc(C(F)(F)F)cc(C(F)(F)F)c1` (configuration not stated), for which the TGI in test [1], in test [2], in [3], in test [4], in test [5] and in test [6] was more than 100 µM in each case. The TGI in [7], in test [8], in test [9] and in test [10] was more than 100 µM each time.
Regarding `COc1cc(CNC(=O)[C@H](Cc2ccc(O)cn2)NC(C)=O)cc(OC)c1`, the TGI in test [1], in test [2], in test [3], in test [4], in test [6] and in test [11] was more than 100 µM in each case. Moreover, the concentration for total growth inhibition (TGI) in test [7], in test [12], in [8], in [9] and in test [10] was more than 100 µM throughout.
For `NC1=NN(c2ccccc2)C2(c3ccncc3C(=O)O)C1C(N)=NN2c1ccccc1` (configuration not stated), the TGI in test [1], in test [2], in [3], in test [4], in test [6] and in [11] was more than 100 µM each time. In addition, the total growth inhibition concentration (TGI) in test [7], in test [12], in test [8], in [9] and in [10] was more than 100 µM each time.
Regarding `CC(C)[Si](OCC1CC(C[C@H]2CC(C[C@H]3C[C@@H](CO[Si](C(C)C)(C(C)C)C(C)C)OC(C)(C)O3)OC(C)(C)O2)OC(C)(C)O1)(C(C)C)C(C)C` (some centres not stated), the concentration for total growth inhibition (TGI) in [1], in test [2], in test [3], in [4], in test [5] and in test [6] was more than 100 µM throughout. In addition, the TGI in [7], in test [8], in test [9] and in test [10] was more than 100 µM each time.
For the compound `Clc1ccc2c(c1)CC1C[N+]3=C(CCCC3)C1=C2` (configuration not stated), the total growth inhibition concentration (TGI) in test [1], in [2], in test [3], in [4], in test [6] and in [11] was more than 100 µM each time. In addition, the TGI in [7], in test [12], in test [8], in test [9] and in test [10] was more than 100 µM throughout.
In the case of `O=C1C=CC[C@H](/C=C/C[C@@H](O)C[C@H](O)/C=C/c2ccccc2)O1`, the TGI amounted to 28.7 µM in [1]; 26.9 µM in test [2]; 17.4 µM in [3]; 29.6 µM in test [4]; 27.4 µM in [6]; 26.3 µM in [11]. The TGI in [7] was 19.9 µM; in test [12], 27.8 µM; in test [8] it was 28.6 µM; in [9], 25.7 µM; in [10], 35.3 µM.
With `CNC(=O)c1n[nH]n(Cc2ccccc2)c1=S`, the TGI in [1], in test [2], in [3], in [4], in test [6] and in [11] was more than 100 µM in each case. The TGI in [7], in [12], in [9] and in [10] was more than 100 µM throughout.
For the compound `NC(CCCCN=Cc1nc(-c2ccccc2)oc1O)C(=O)O` (configuration not stated), the TGI in test [1], in [2], in test [3], in test [4], in test [5] and in test [6] was more than 100 µM throughout. For the same compound, the TGI in test [8], in test [9] and in test [10] was more than 100 µM each time.
As for `COC(=O)c1cc(-c2ccc(-c3ccc(O)cc3)cc2)cc(-c2ccc(-c3ccc(O)cc3)cc2)c1`, the TGI came out at 32.6 µM in [1]; 33.3 µM in [2]; 17.9 µM in test [3]; 18.9 µM in test [4]; 21.9 µM in test [6]; 29.5 µM in test [7]. The TGI in test [12] was found to be 31 µM; in test [10], 35 µM.
For `N#CC(C#N)=Cc1ccc(C=C2SC3=C(SCCS3)S2)s1`, the total growth inhibition concentration (TGI) was 9.73 µM in [1]; more than 100 µM in test [2]; more than 100 µM in test [3]; more than 100 µM in test [4]; more than 100 µM in test [6]; more than 100 µM in test [11]. The total growth inhibition concentration (TGI) in test [7], in test [12], in test [8], in [9] and in [10] was more than 100 µM in each case.
In the case of `C[C@@H]1OC(=O)C[C@H]2CC(=O)N(CCC3CN(S(=O)(=O)C(F)(F)F)c4ccc(Cc5ccc6c(c5)C(CCN5C[C@H]7[C@@H](CC(=O)O[C@H]7C)CC5=O)CN6S(=O)(=O)C(F)(F)F)cc43)C[C@@H]21` (some centres not stated), the concentration for total growth inhibition (TGI) in test [1], in test [2], in test [3], in test [4], in [6] and in [11] was more than 100 µM each time. Also, the TGI in test [7], in test [12], in [8], in test [9] and in test [10] was more than 100 µM each time.
`O=C1OC2c3ccccc3C(=O)C2(c2ccccc2)N1c1ccccc1` (configuration not stated): the total growth inhibition concentration (TGI) in test [1], in test [2], in test [3], in test [4], in [6] and in test [11] was more than 200 µM in each case. For the same compound, the total growth inhibition concentration (TGI) in [7], in test [12], in test [8], in test [9] and in [10] was more than 200 µM throughout.
Turning to `CCCC(=O)/C=C/S/C=C/C(=O)CCC`, the TGI in test [1] turned out to be 17.9 µM; in test [4], 4.98 µM; in test [6], 6.05 µM; in test [11] it was 27.1 µM; in test [7], 7.4 µM; in [8], 25.4 µM. The concentration for total growth inhibition (TGI) in test [9] was 66.2 µM; in test [10], more than 100 µM.
